Values after ≈ are worked out from the molar mass of the structure shown.
Experiments:
KB = test: Cytotoxicity against human KB cells; assay type: functional, cell-based
[1] = Cytotoxicity against multidrug resistant human KBv200 cells expressing p-glycoprotein; assay type: functional, cell-based

For C=C[C@]1(C)C=C2C(=O)C(O)=C3C(C)(C)CCC[C@]3(C)[C@@]2(O)CC1, the IC50 (KB) was 20.7 µg/mL (≈ 65.5 µM) and the IC50 [1] was 14.5 µg/mL (≈ 45.7 µM).
In the case of C=C[C@]1(C)C=C2[C@@H](O)C[C@H]3C(C)(C)CCC[C@]3(C)[C@@]2(O)CC1, the IC50 (KB) is reported as > 100 µg/mL and the IC50 [1] is reported as > 100 µg/mL.
C=C[C@]1(C)C=C2C(=O)[C@@]3(O)OC[C@@]4(CCCC(C)(C)[C@@]43O)[C@@]2(O)[C@H](O)C1 [DIAPORTHINS B] gave an IC50 (KB) of 3.86 µg/mL (≈ 10.6 µM) and an IC50 [1] of 6.52 µg/mL (≈ 17.9 µM).

— ChEMBL document CHEMBL2016477, “Pimarane diterpenes from the fungus Epicoccum sp. HS-1 associated with Apostichopus japonicus” (Bioorg Med Chem Lett, 2012)
